Consider 18 substances from US20100015169A1, “Tumor Antigens” (GREEN PEPTIDE CO., LTD., priority 2001, published 2010).

No end group written: not given here.

Holding throughout (assay type): cell-based, human
In data set [1] the test system is PC93-A24 cells (HLA-A24+ prostate cancer cell). The data set is described as follows: 6-hour 51Cr release test of peptide-induced CTL against HLA-A24+ prostate cancer cells. Particulars: for Cytotoxic activity (% lysis): HLA-A24+ prostate cancer cell. Here is the method: (§1) The cytotoxic activity of CTL induced from the PBMC of an HLA-A24^+ prostate cancer patient by PSM624-632 (SEQ ID NO: 3) was examined in the ^51Cr release test using prostate cancer cells. First, PBMC from two patients with prostate cancer were cultured for 10 days and stimulated as in Example 1, and then further cultured for 10 days prior to use as effector cells. The cytotoxic activity of the effector cells against HLA-A24^+ target cells was measured by a standard 6-hour ^51Cr release test at an E/T ratio of 10:1 or 20:1, and the results obtained were expressed as the percentage of specific lysis. PC93-A24 cells resulting from the introduction and expression of the HLA-A24 gene in HLA-A24^− prostate cancer cells (PC93), methods known in the art, were used as target cells. In addition, the HLA-A24^− prostate cancer cells were used as controls.
PBMC were cultured with 10 μg/ml each of PSA152-160 (SEQ ID NO: 1) or PSA248-257 (SEQ ID NO: 2) for 12 days, in the same manner as described above. Prostate cancer cells PC93-A24, which were created in Example 2 and used as target cells, were incubated with the aforementioned cultured PBMC, and then the amount of IFN-γ in the culture supernatant was measured (see Example 1). In addition, the aforementioned cultured cells were cultured for 14 additional days, and the cytotoxic activity against the PC93-A24 cells was measured by the ^51Cr release test (see Example 2).

The test system of data set [2] is C1R-A2402 cells (HLA-A24+) pulsed with the same peptide. The data set is described as follows: IFN-γ production (ELISA) by peptide-stimulated PBMC in reaction to peptide-pulsed C1R-A2402 cells; induction of HLA-A24-restricted CTL. The settings on record: PBMC of prostate cancer patients; for cases in which the peptide enhanced the production of IFN-γ from PBMC: 10 μM peptide, 10 days, positive = significant, 50 pg/ml NET or more, Example 1. On the procedure: The ability of the synthesized peptide to induce HLA-A24-restricted CTL from the PBMC that was prepared from a prostate cancer patient was examined. The PBMC were prepared from blood by a method of the art. 1×10^5 PBMC were cultured with 10 μM of each peptide in each well of a U-shaped 96-well micro-culture plate (produced by Nunc) to which 200 μl of culture medium (comprising 45% RPMI-1640 culture medium, 45% AIM-V® culture medium (Invitrogen), 100 U/ml of IL-2, 0.1 mM of MEM non-essential amino acid solution (Invitrogen), and 10% FCS) was added, at 37° C. under conditions of 5% CO2-95% air. At 4 days and 7 days of culturing, half of the culture medium was removed and replaced with a culture medium having the aforementioned composition containing the peptide equivalent to the peptide that was added in the beginning. At 10 days of culturing, the cells were collected, washed, and used as effector cells (E).
Meanwhile, each synthesized peptide (10 μM) was incubated with C1R-A2402 cells (HLA-A24^+) for 2 hours at 37° C. under conditions of 5% CO2-95% air, to make the peptide of interest bind to the HLA-A24 molecule expressed on the cell surface. C1R-A2402 cells thus pulsed with each of peptide were used as target cells (T).
The effector cells were equally divided, and mixed with a variety of target cells, followed by incubating for 18 hours at 37° C. under conditions of 5% CO2-95% air. After incubation, 100 μl of supernatant was collected, and the amount of IFN-γ produced was measured by ELISA. In so doing, the effector cells were paired with the target cells in such a way that the peptide used to induce the effector cells and the peptide pulsed to C1R-A2402 cells were the same. In addition, a peptide derived from the human immunodeficiency virus (hereinafter abbreviated as HIV) was used as a control, and the quantity of IFN-γ produced by CTL that recognized C1R-A2402 cells pulsed with the HIV peptide was taken as a background and subtracted from each measurement value. Each measurement value (NET) that has been calculated was statistically processed by the Student's t-test, and those with a P value of 0.05 or below were considered to be significant. In addition, a peptide that enhanced IFN-γ production with significance by 50 pg/ml NET or more was assessed as positive. […]

Data set [3] relates to HLA-A24- prostate cancer cells (PC93). Description: 6-hour 51Cr release test of peptide-induced CTL against HLA-A24- prostate cancer cells (control). Particulars: HLA-A24- prostate cancer cell. Here is the method: as §1
Setting [4] is: PBMC of a healthy subject, stimulated 12 days + 14 days, significant versus PC93 cells (FIG. 7B).
The mark [5] stands for this setting: PBMC of prostate cancer patients, significant versus PC93 cells (FIG. 8B).
The mark [6] stands for this setting: PBMC of prostate cancer patient 1, E/T = 10.
Where [7] appears, read: PBMC of prostate cancer patient 1, E/T = 20.
Where [8] appears, read: PBMC of prostate cancer patient 2, E/T = 10.
Setting [9] is: PBMC of prostate cancer patient 2, E/T = 20.

For the substance CYASGWGSI [PSA152-160], the “cytotoxic activity against PC93-A24 cells” value in data set [1] (setting [4]) and in data set [1] (setting [5]) was “exhibited cytotoxic activity” in each case.
For the substance HYRKWIKDTI [PSA248-257], the “cytotoxic activity against PC93-A24 cells” value in data set [1] (setting [4]) and in data set [1] (setting [5]) was “exhibited cytotoxic activity” in each case.
Regarding “PSCA27-36: peptide (PSCA residues 27-36) that did not induce HLA-A24-restricted CTL (LQVENCTQLG)”, the “induction of HLA-A24-restricted CTL” value in data set [2] is recorded as “did not induce”.
As to “PSCA76-84: peptide derived from PSCA, residues 76-84, HLA-A24-binding motif (DYYVGKKNI; A peptide recognized by HLA-A24 restricted cytotoxic T lymphocytes, which is designed based on the amino acid sequence of PSCA)”, the “cases in which the peptide enhanced the production of IFN-γ from PBMC” value in data set [2] is 1 out of 12.
Regarding “PSCA82-91: peptide derived from PSCA, residues 82-91, HLA-A24-binding motif (KNITCCDTDL; A peptide recognized by HLA-A24 restricted cytotoxic T lymphocytes, which is designed based on the amino acid sequence of PSCA)”, the “cases in which the peptide enhanced the production of IFN-γ from PBMC” value in data set [2] is listed as 2 out of 12.
With “PSM74-83: peptide derived from PSMA that did not induce HLA-A24-restricted CTL (LYNFTQIPHL)”, the “induction of HLA-A24-restricted CTL” value in data set [2] was “did not induce”.
“PSM178-186: peptide derived from PSMA that did not induce HLA-A24-restricted CTL (NYARTEDFF)”: in data set [2], the “induction of HLA-A24-restricted CTL” value is recorded as “did not induce”.
Take “PSM227-235: peptide derived from PSMA that did not induce HLA-A24-restricted CTL (LYSDPADYF)”: in data set [2], the “induction of HLA-A24-restricted CTL” value was “did not induce”.
The same measure, in the same setting: under “PSM298-306: peptide derived from PSMA that did not induce HLA-A24-restricted CTL (GYYDAQKLL)” stands “did not induce”; under “PSM448-456: peptide derived from PSMA that did not induce HLA-A24-restricted CTL (AYINADSSI)”, “did not induce”.
Turning to “PSM520-528: peptide derived from PSMA that did not induce HLA-A24-restricted CTL (DFEVFFQRL)”, the “induction of HLA-A24-restricted CTL” value in data set [2] is “did not induce”.
Regarding “PSM565-574: peptide derived from PSMA that did not induce HLA-A24-restricted CTL (FYDPMFKYHL)”, in data set [2], the “induction of HLA-A24-restricted CTL” value is reported as “did not induce”.
Take “PSM584-593: peptide derived from PSMA that did not induce HLA-A24-restricted CTL (VFELANSIVL)”: the “induction of HLA-A24-restricted CTL” value in data set [2] is recorded as “did not induce”.
On to “PSM606-614: peptide derived from PSMA that did not induce HLA-A24-restricted CTL (KYADKIYSI)”, for which, in data set [2], the “induction of HLA-A24-restricted CTL” value is “did not induce”.
In the case of “PSM624-633: peptide derived from PSMA that did not induce HLA-A24-restricted CTL (TYSVSFDSLF)”, the “induction of HLA-A24-restricted CTL” value in data set [2] was “did not induce”.
On the same count and under the same terms, under “PSM699-708: peptide derived from PSMA that did not induce HLA-A24-restricted CTL (KYAGESFPGI)” stands “did not induce”; under “PSM704-712: peptide derived from PSMA that did not induce HLA-A24-restricted CTL (SFPGIYDAL)”, “did not induce”.
TYSVSFDSL [PSM624-632]: the “Cytotoxic activity (% lysis)” value in data set [1] (setting [6]) worked out at 16.1 % lysis; in data set [1] (setting [7]), 19.9 % lysis; in data set [1] (setting [8]) it was 18.0 % lysis; in data set [1] (setting [9]) it was 17.8 % lysis; in data set [3] (setting [6]), 6.6 % lysis; in data set [3] (setting [7]) it was 6.1 % lysis. The “Cytotoxic activity (% lysis)” value worked out at 3.5 % lysis in data set [3] (setting [8]) and 5.6 % lysis in data set [3] (setting [9]).
